Strand notation (5' to 3'): a small letter for the sugar, then the base; units joined by * are phosphorothioate-linked, units joined directly phosphodiester-linked; [ ] holds rarer units or linkages, { } end groups; capitals alone tell only the bases. [ms] = mesyl phosphoramidate linkage; e = 2'-O-(2-methoxyethyl) (MOE); k = constrained ethyl (cEt); [5mC] = 5-methylcytosine; d = 2'-deoxy (DNA)
Legend:
human APOE RNA [1] = assay: Activity in APOE C57BL/6NTac-Apoeem7250 knock-in mice, single ICV bolus, 16 weeks (Example 12); assay type: in vivo; details: single ICV bolus 300 μg, 16 weeks post treatment, normalized to mouse Ppia
Summary of the method: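 A single 300 μg intracerebroventricular dose was given, with PBS-treated mice as reference; cortical and spinal cord tissue was taken 16 weeks later. RT-qPCR quantified human APOE RNA, Ppia-normalized, expressed relative to PBS animals (% control).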

human APOE RNA [2] = assay: Duration of action study in APOE C57BL/6NTac-Apoeem7250 knock-in mice (Example 16); assay type: in vivo; details: 300 μg ICV
Summary of the method: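 Knock-in mice (2-4 per group) received a single ICV bolus of 300 μg oligonucleotide or PBS. At various timepoints, cortex and spinal cord human APOE RNA was measured by RT-qPCR (RTS3073), normalized to mouse Ppia and expressed as % of PBS control.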

human APOE RNA [3] = assay: Dose-dependent inhibition of human APOE RNA in HepG2 cells, electroporation, 50,000 cells per well, RT-PCR normalized to GAPDH (Example 4, Tables 8-10); assay type: cell-based; details: for APOE RNA (% UTC) 1,280 nM: 24-hour treatment, 1,280 nM; for APOE RNA (% UTC) 3,200 nM: 24-hour treatment, 3,200 nM; for APOE RNA (% UTC) 8,000 nM: 24-hour treatment, 8,000 nM; for APOE RNA (% UTC) 20,000 nM: 24-hour treatment, 20,000 nM
Summary of the method: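 Readout is percent APOE RNA versus untreated controls, measured by RT-PCR (primer probe set RTS3073) and normalized to human GAPDH. Modified oligonucleotides were delivered by electroporation at varying doses into HepG2 cells plated at 50,000 per well.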

human APOE RNA [4] = assay: Activity in APOE C57BL/6NTac-Apoeem7250 knock-in mice, single ICV bolus, 20 weeks (Example 13); assay type: in vivo; details: single ICV bolus 300 μg, 20 weeks post treatment, normalized to mouse Ppia
Summary of the method: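 Cortical and spinal cord RNA was assayed by real-time RT-PCR for human APOE, normalized to mouse Ppia and reported as percent of PBS controls. Tissue was taken twenty weeks after one 300 μg intracerebroventricular bolus in APOE knock-in mice, 4 per group.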

[5] = HepG2 cells, electroporation, 24-hour treatment, 5 nM, Table 8
[6] = HepG2 cells, electroporation, 24-hour treatment, 13 nM, Table 8
[7] = HepG2 cells, electroporation, 24-hour treatment, 33 nM, Table 8
[8] = HepG2 cells, electroporation, 24-hour treatment, 82 nM, Table 8
[9] = HepG2 cells, electroporation, 24-hour treatment, 205 nM, Table 8
[10] = HepG2 cells, electroporation, 24-hour treatment, 512 nM, Table 8
[11] = HepG2 cells, electroporation, Table 8
[12] = reduction of human APOE RNA, HepG2 cells, electroporation, 24-hour treatment, Table 8

Substance | APOE RNA (% control) Cortex (human APOE RNA [1]) | APOE RNA (% control) Spinal Cord (human APOE RNA [1]) | APOE RNA (% control) Cortex (human APOE RNA [4]) | APOE RNA (% control) Spinal Cord (human APOE RNA [4]) | APOE RNA (% UTC) 5 nM (human APOE RNA [3]; [5]) | APOE RNA (% UTC) 13 nM (human APOE RNA [3]; [6]) | APOE RNA (% UTC) 33 nM (human APOE RNA [3]; [7]) | APOE RNA (% UTC) 82 nM (human APOE RNA [3]; [8]) | APOE RNA (% UTC) 205 nM (human APOE RNA [3]; [9]) | APOE RNA (% UTC) 512 nM (human APOE RNA [3]; [10]) | APOE RNA (% UTC) 1,280 nM (human APOE RNA [3]; [11]) | APOE RNA (% UTC) 3,200 nM (human APOE RNA [3]; [11]) | APOE RNA (% UTC) 8,000 nM (human APOE RNA [3]; [11]) | APOE RNA (% UTC) 20,000 nM (human APOE RNA [3]; [11]) | IC50 (human APOE RNA [3]; [12]) | other results
1693105: 6-10-4 MOE gapmer CTTGGTGAATCTTTATTAAA, linkages sosssszzzssssszssss (e[5mC]*eTeT*eG*eG*eT*dG[ms]dA[ms]dA[ms]dT*d[5mC]*dT*dT*dT*dA[ms]dT*eT*eA*eA*eA) [compound 1693105] | 65 % control | 44 % control |  |  |  |  |  |  |  |  |  |  |  |  |  | 
1746809 (k[5mC]*dT[ms]kT*dG[ms]kG*dT[ms]dG[ms]dA[ms]dA[ms]dT*d[5mC]*dT*dT*dT*dA[ms]dT*dT[ms]kA*kA*kA; antisense) [Compound 1746809] |  |  |  |  |  |  |  |  |  |  |  |  |  |  |  | APOE RNA (% control) Cortex (human APOE RNA [2]; 112 days post-dose): 55 % control; APOE RNA (% control) Cortex (human APOE RNA [2]; 140 days post-dose): 66 % control; APOE RNA (% control) Spinal Cord (human APOE RNA [2]; 112 days post-dose): 86 % control; APOE RNA (% control) Spinal Cord (human APOE RNA [2]; 140 days post-dose): 107 % control; APOE RNA (% UTC) (human APOE RNA [3]; 5 nM, HepG2, electroporation, 24-hour treatment): 91 % UTC; APOE RNA (% UTC) (human APOE RNA [3]; 33 nM, HepG2, electroporation, 24-hour treatment): 98 % UTC; APOE RNA (% UTC) (human APOE RNA [3]; 82 nM, HepG2, electroporation, 24-hour treatment): 74 % UTC; APOE RNA (% UTC) (human APOE RNA [3]; 205 nM, HepG2, electroporation, 24-hour treatment): 81 % UTC; APOE RNA (% UTC) (human APOE RNA [3]; 512 nM, HepG2, electroporation, 24-hour treatment): 54 % UTC; APOE RNA (% UTC) (human APOE RNA [3]; 1,280 nM, HepG2, electroporation, 24-hour treatment): 35 % UTC; APOE RNA (% UTC) (human APOE RNA [3]; 3,200 nM, HepG2, electroporation, 24-hour treatment): 33 % UTC; APOE RNA (% UTC) (human APOE RNA [3]; 8,000 nM, HepG2, electroporation, 24-hour treatment): 23 % UTC; APOE RNA (% UTC) (human APOE RNA [3]; 20,000 nM, HepG2, electroporation, 24-hour treatment): 14 % UTC; IC50 (human APOE RNA [3]; HepG2, electroporation, 24-hour treatment): 840 nM
1757575 (eA*e[5mC]eTeT*kG*kG*dT*dG[ms]dA[ms]dA[ms]dT*d[5mC]*dT*dT*dT*dA[ms]kT*eT*eA*eA; antisense) [Compound 1757575] | 33 % control | 21 % control | 39 % control | 88 % control |  |  |  |  |  |  |  |  |  |  |  | APOE RNA (% UTC) (human APOE RNA [3]; 5 nM, HepG2, electroporation, 16-hour treatment): 84 % UTC; APOE RNA (% UTC) (human APOE RNA [3]; 13 nM, HepG2, electroporation, 16-hour treatment): 80 % UTC; APOE RNA (% UTC) (human APOE RNA [3]; 33 nM, HepG2, electroporation, 16-hour treatment): 87 % UTC; APOE RNA (% UTC) (human APOE RNA [3]; 82 nM, HepG2, electroporation, 16-hour treatment): 78 % UTC; APOE RNA (% UTC) (human APOE RNA [3]; 205 nM, HepG2, electroporation, 16-hour treatment): 81 % UTC; APOE RNA (% UTC) (human APOE RNA [3]; 512 nM, HepG2, electroporation, 16-hour treatment): 51 % UTC; APOE RNA (% UTC) (human APOE RNA [3]; 1,280 nM, HepG2, electroporation, 16-hour treatment): 44 % UTC; APOE RNA (% UTC) (human APOE RNA [3]; 3,200 nM, HepG2, electroporation, 16-hour treatment): 37 % UTC; APOE RNA (% UTC) (human APOE RNA [3]; 8,000 nM, HepG2, electroporation, 16-hour treatment): 25 % UTC; APOE RNA (% UTC) (human APOE RNA [3]; 20,000 nM, HepG2, electroporation, 16-hour treatment): 15 % UTC; IC50 (human APOE RNA [3]; HepG2, electroporation, 16-hour treatment): 940 nM
1778111: modified oligonucleotide complementary to human APOE RNA (eA*e[5mC]eTeTeG*kG*dT*dG[ms]dA[ms]dA*dT*d[5mC]*dT*dT*dT*dA[ms]eTeT*eA*eA; antisense) [compound 1778111] | 49 % control | 27 % control | 59 % control | 25 % control | 75 % UTC | 96 % UTC | 73 % UTC | 61 % UTC | 53 % UTC | 44 % UTC | 27 % UTC | 17 % UTC | 12 % UTC | 9 % UTC | 240 nM | 
1778128: modified oligonucleotide complementary to human APOE RNA (eA*e[5mC]eTeTkGkG*dT*dG[ms]dA[ms]dA*dT*d[5mC]*dT*dT*dT*dA[ms]kTeT*eA*eA; antisense) [compound 1778128] | 34 % control | 22 % control | 60 % control | 22 % control | 81 % UTC | 83 % UTC | 66 % UTC | 53 % UTC | 39 % UTC | 28 % UTC | 22 % UTC | 9 % UTC | 8 % UTC | 5 % UTC | 100 nM | 
1778130: modified oligonucleotide complementary to human APOE RNA (eA*e[5mC]eTeTeG*kG*dT*dG[ms]dA[ms]dA*dT*d[5mC]*dT*dT*dT*dA[ms]kTkT*eA*eA; antisense) [compound 1778130] | 34 % control | 15 % control | 48 % control | 19 % control | 100 % UTC | 106 % UTC | 93 % UTC | 75 % UTC | 61 % UTC | 44 % UTC | 26 % UTC | 19 % UTC | 10 % UTC | 6 % UTC | 400 nM | 
1778131: modified oligonucleotide complementary to human APOE RNA (eA*e[5mC]eTeTeGkG*dT*dG[ms]dA[ms]dA*dT*d[5mC]*dT*dT*dT*dA[ms]kTkT*eA*eA; antisense) [compound 1778131] | 34 % control | 17 % control | 65 % control | 43 % control | 104 % UTC | 117 % UTC | 101 % UTC | 78 % UTC | 71 % UTC | 50 % UTC | 35 % UTC | 28 % UTC | 7 % UTC | 5 % UTC | 630 nM | 
1785598: modified oligonucleotide complementary to human APOE RNA (k[5mC]*kT*kT*dG[ms]dG[ms]dT[ms]dG[ms]dA[ms]dA[ms]dT*d[5mC]*dT*dT*dT*dA*dT[ms]kT*kA*dA[ms]kA; antisense) [compound 1785598] | 36 % control | 24 % control | 72 % control | 30 % control | 112 % UTC | 109 % UTC | 110 % UTC | 95 % UTC | 70 % UTC | 73 % UTC | 33 % UTC | 21 % UTC | 8 % UTC | 9 % UTC | 840 nM | 
1785617: modified oligonucleotide complementary to human APOE RNA (k[5mC]*dT[ms]dT[ms]kG*dG[ms]kT*dG[ms]dA[ms]dA[ms]dT[ms]d[5mC]*dT*dT*dT*dA*dT*kT*kA*dA[ms]kA; antisense) [compound 1785617] | 37 % control | 28 % control | 61 % control | 38 % control | 91 % UTC | 104 % UTC | 93 % UTC | 83 % UTC | 93 % UTC | 50 % UTC | 47 % UTC | 18 % UTC | 27 % UTC | 11 % UTC | 950 nM | 

Reference: patent US20250353873A1, “COMPOUNDS AND METHODS FOR MODULATING APOE EXPRESSION” (Ionis Pharmaceuticals, Inc., priority 2024, published 2025)
